Source: patent publication US7494671B2, “Extract of Trapa natans and methods of using the same” (priority 2002, dated 2009)

Key:
Format in all cases: cell-based
Conditions in all cases: 50 ul saturated solution in 1 ml of cell media, in vitro
[1] = test system: Lncap, prostate cancer cells; experiment: Cancer cell proliferation assay, Lncap
Experimental: (§1) […] For comparison purposes, the effects of two anticancer drugs, cisplatin and paclitaxel, on the growth of the three types of cancel cells were also determined in vitro.

[2] = test system: SW 480, colorectal cancer cells; experiment: Cancer cell proliferation assay, SW 480
Experimental: as §1

HTB 72, melanoma cells = experiment: Cancer cell proliferation assay, HTB 72
Experimental: as §1

SMILES | Inhibition, % Lncap [1] | Inhibition, % SW 480 [2] | Inhibition, % HTB 72 (HTB 72, melanoma cells)
N.N.[Cl][Pt][Cl] [Cisplatin, cisplatin] | 94.91% | 78.25% | 93.78%
CC(=O)O[C@H]1C(=O)[C@@]2(C)[C@H]([C@H](OC(=O)c3ccccc3)[C@]3(O)C[C@H](OC(=O)[C@H](O)[C@@H](NC(=O)c4ccccc4)c4ccccc4)C(C)=C1C3(C)C)[C@]1(OC(C)=O)CO[C@@H]1C[C@@H]2O [Paclitaxel, paclitaxel] | 57.98% | 0.0% | 22.61%
